{"source": "patent US12691107B2", "about": "“Methods for the treatment and prevention of lung infections caused by gram-positive bacteria, fungus, or virus by administration of tafenoquine” (priority 2020, dated 2026)", "key": {"[1]": {"test_system": "Sporothrix sp.", "assay": "Antifungal MIC (RPMI-1640 microdilution)", "type": "cell-based"}, "[2]": {"test_system": "Apophysomyces sp.", "assay": "Antifungal MIC (RPMI-1640 microdilution)", "type": "cell-based"}, "[3]": {"test_system": "Saksenaea sp.", "assay": "Antifungal MIC (RPMI-1640 microdilution)", "type": "cell-based"}, "[4]": {"test_system": "Rhizopus arrhizus", "assay": "Antifungal MIC (RPMI-1640 microdilution)", "type": "cell-based"}, "[5]": {"test_system": "P. variotii", "assay": "Antifungal MIC (RPMI-1640 microdilution)", "type": "cell-based", "details": "Paecilomyces variotii, read-out: MIC 100% inhibition"}, "[6]": {"test_system": "Streptococcus pneumoniae", "assay": "Antibacterial MIC (broth microdilution)", "type": "cell-based", "details": "Streptococcus pneumoniae, CA-MHB with 3% LHB"}, "[7]": {"test_system": "Staphylococcus aureus", "assay": "Antibacterial MIC (broth microdilution)", "type": "cell-based"}, "[8]": {"test_system": "Curvularia sp.", "assay": "Antifungal MIC (RPMI-1640 microdilution)", "type": "cell-based", "details": "read-out: MIC 100% inhibition"}, "[9]": {"test_system": "Fusarium sp.", "assay": "Antifungal MIC (RPMI-1640 microdilution)", "type": "cell-based"}, "[10]": {"test_system": "Exserohilum sp.", "assay": "Antifungal MIC (RPMI-1640 microdilution)", "type": "cell-based", "details": "read-out: MIC 100% inhibition"}, "[11]": {"test_system": "Aspergillus fumigatus", "assay": "Antifungal MIC (RPMI-1640 microdilution)", "type": "cell-based"}, "[12]": {"test_system": "Aspergillus flavus", "assay": "Antifungal MIC (RPMI-1640 microdilution)", "type": "cell-based"}, "[13]": {"test_system": "Altenaria sp.", "assay": "Antifungal MIC (RPMI-1640 microdilution)", "type": "cell-based", "details": "read-out: MIC 100% inhibition"}, "[14]": {"test_system": "SARS-CoV-2", "details": "cited from earlier work"}}, "note": "Read-outs that look alike come from different tables or passages of the source."}
{"smiles": "CC[C@@H]([C@H](C)O)n1ncn(-c2ccc(N3CCN(c4ccc(OC[C@@H]5CO[C@@](Cn6cncn6)(c6ccc(F)cc6F)C5)cc4)CC3)cc2)c1=O", "note": "[Posaconazole]", "values": [{"measurement": "MIC", "setting": "[1]; read-out: MIC 100% inhibition, isolate Sporo1", "result": 0.06, "unit": "µg/mL"}, {"measurement": "MIC", "setting": "[1]; read-out: MIC 100% inhibition, isolate Sporo2", "result": 1, "unit": "µg/mL"}, {"measurement": "MIC", "setting": "[1]; read-out: MIC 100% inhibition, isolate Sporo3", "result": 0.06, "unit": "µg/mL"}, {"measurement": "MIC", "setting": "[2]; read-out: MIC 100% inhibition, isolate Apo1", "result": 0.06, "unit": "µg/mL"}, {"measurement": "MIC", "setting": "[2]; read-out: MIC 100% inhibition, isolate Apo2", "result": "≤ 0.03", "unit": "µg/mL"}, {"measurement": "MIC", "setting": "[2]; read-out: MIC 100% inhibition, isolate Apo3", "result": 0.5, "unit": "µg/mL"}, {"measurement": "MIC", "setting": "[3]; read-out: MIC 100% inhibition, isolate Sak1", "result": "≤ 0.03", "unit": "µg/mL"}, {"measurement": "MIC", "setting": "[3]; read-out: MIC 100% inhibition, isolate Sak2", "result": 0.06, "unit": "µg/mL"}, {"measurement": "MIC", "setting": "[3]; read-out: MIC 100% inhibition, isolate Sak3", "result": "≤ 0.03", "unit": "µg/mL"}, {"measurement": "MIC", "setting": "[4]; read-out: MIC 100% inhibition, isolate 99-880", "result": 1, "unit": "µg/mL"}, {"measurement": "MIC", "setting": "[4]; read-out: MIC 100% inhibition, isolate 99-892", "result": 0.25, "unit": "µg/mL"}, {"measurement": "MIC", "setting": "[4]; read-out: MIC 100% inhibition, isolate RAI", "result": 0.125, "unit": "µg/mL"}, {"measurement": "MIC", "setting": "[5]; isolate MYA-3630", "result": "≤ 0.03", "unit": "µg/mL"}]}
{"smiles": "CN[C@H](CC(C)C)C(=O)N[C@H]1C(=O)N[C@@H](CC(N)=O)C(=O)N[C@H]2C(=O)N[C@H]3C(=O)N[C@H](C(=O)N[C@H](C(=O)O)c4cc(O)cc(O)c4-c4cc3ccc4O)[C@H](O)c3ccc(c(Cl)c3)Oc3cc2cc(c3O[C@@H]2O[C@H](CO)[C@@H](O)[C@H](O)[C@H]2O[C@H]2C[C@](C)(N)[C@H](O)[C@H](C)O2)Oc2ccc(cc2Cl)[C@H]1O", "note": "[Vancomycin]", "values": [{"measurement": "MIC", "setting": "[6]; ATCC49619, isolate ATCC 49619", "result": "≤ 0.125", "unit": "µg/mL"}, {"measurement": "MIC", "setting": "[6]; isolate CO314937", "result": "≤ 0.125", "unit": "µg/mL"}, {"measurement": "MIC", "setting": "[6]; isolate MD77773", "result": 0.25, "unit": "µg/mL"}, {"measurement": "MIC", "setting": "[7]; Staphylococcus aureus", "result": 1, "unit": "µg/mL"}, {"measurement": "MIC", "setting": "[7]; Staphylococcus aureus, ATCC29213", "result": 1, "unit": "µg/mL"}, {"measurement": "MIC", "setting": "[7]; isolate 6229", "result": 1, "unit": "µg/mL"}]}
{"smiles": "C[C@@H](c1ncncc1F)[C@](O)(Cn1cncn1)c1ccc(F)cc1F", "note": "[Voriconazole]", "values": [{"measurement": "MIC", "setting": "[8]", "result": 0.5, "unit": "µg/mL"}, {"measurement": "MIC", "setting": "[9]; read-out: MIC 100% inhibition, isolate FO1", "result": 4, "unit": "µg/mL"}, {"measurement": "MIC", "setting": "[9]; read-out: MIC 100% inhibition, isolate FS2", "result": "> 16", "unit": "µg/mL"}, {"measurement": "MIC", "setting": "[9]; read-out: MIC 100% inhibition, isolate FSI", "result": 8, "unit": "µg/mL"}, {"measurement": "MIC", "setting": "[10]", "result": 0.5, "unit": "µg/mL"}, {"measurement": "MIC", "setting": "[11]; read-out: MIC 100% inhibition, isolate AF293", "result": 1, "unit": "µg/mL"}, {"measurement": "MIC", "setting": "[11]; read-out: MIC 100% inhibition, isolate D115-106", "result": "> 16", "unit": "µg/mL"}, {"measurement": "MIC", "setting": "[11]; read-out: MIC 100% inhibition, isolate D115-116", "result": 8, "unit": "µg/mL"}, {"measurement": "MIC", "setting": "[12]; ATCC204304, read-out: MIC 100% inhibition, isolate ATCC 204304", "result": 1, "unit": "µg/mL"}, {"measurement": "MIC", "setting": "[12]; read-out: MIC 100% inhibition, isolate Aflav2", "result": 2, "unit": "µg/mL"}, {"measurement": "MIC", "setting": "[12]; read-out: MIC 100% inhibition, isolate Aflav3", "result": 1, "unit": "µg/mL"}, {"measurement": "MIC", "setting": "[5]", "result": 0.125, "unit": "µg/mL"}, {"measurement": "MIC", "setting": "[13]", "result": 2, "unit": "µg/mL"}]}
{"smiles": "CCN(CC)CCCC(C)Nc1ccnc2cc(Cl)ccc12", "note": "(stereo not drawn) [chloroquine]", "values": [{"measurement": "fold less potent in CALU-3 than in VERO cells", "setting": "[14]", "result": 10, "unit": "fold"}]}
